# Measured values reported in patent US20120142028A1, “[…] […] ANTI-CANCER RESPONSE TO EPIDERMAL GROWTH FACTOR RECEPTOR KINASE INHIBITORS” (OSI Pharmaceuticals, LLC, priority 2009, published 2012).
# Where “and” joins values, the source holds several entries; their conditions need not be identical. Equal entries are not always repeated. Entries after “also recorded” stand apart in the source; their conditions may differ.
# System: patients who had had progression after standard chemotherapy for non-small-cell lung cancer
# Experiment: NCIC CTG BR.21 Phase 3 trial of TARCEVA vs placebo; survival and PFS by tumor E-cadherin/vimentin IHC status
# Assay type: in vivo, human
# Settings: for Hazard Ratio (H/L) (95% CI) / Median Survival / Median PFS: Erlotinib arm; for Hazard Ratio (95% CI): Erlotinib vs. Placebo; for Median PFS: progression free survival
# Experimental: The NCIC CTG. BR.21 study was a Phase 3 trial of TARCEVA® involving patients who had had progression after standard chemotherapy for non-small-cell lung cancer (i.e. 2nd and 3rd line NSCLC; Shepherd F A, et al. N Engl. J. Med 2005; 353:123-132.). Patients were randomly assigned in a 2:1 ratio to receive 150 mg of TARCEVA® (erlotinib HCl) daily or placebo. The primary end point was overall survival. Progression free survival and response were secondary end points. Separate written consent was obtained for optional tissue banking and correlative studies.
# Because the BR21 trial is one of the few TARCEVA® clinical trials that includes a large number of patients and an untreated placebo group, it is optimally designed to evaluate the predictive and prognostic potential of biomarkers. As such, the potential of vimentin and E-cadherin protein expression to serve as a predictive biomarker for overall survival and […] was assessed using remaining tumor samples from the BR21 study. IHC analysis of tumor tissue samples received from NCIC was used to determine E-Cadherin and vimentin protein expression. Sensitivity analyses were performed to determine optimal cut points for E-Cadherin and vimentin staining for classification of E-Cadherin and vimentin as “High” or “Low” for use as prognostic and/or predictive markers for survival and progression-free survival. Further analyses were performed to evaluate possible correlations of biomarker status with clinical outcomes of survival, progression-free survival, response and disease control.
# Stained slides were scored by an experienced pathologist. Slides were first evaluated for quality of tissue and quality of staining Acceptable slides were then evaluated, with the pathologist generating an ‘H-1-score’ based on a subjective interpretation of the staining intensity of the chromagen labeled antibody. Four intensity levels were used in scoring the stained sections: 0 for no staining, +1 for weak or minimal staining, +2 for moderate staining, and +3 for strong staining. The relative percentage of total target cells expressing an intensity level is recorded as data.
# Treatment groups as randomized (ITT population) were analyzed using all patients with evaluable tissue. Disease progression as assessed by the investigator was used for PFS (Progression Free Survival) analysis. Potential predictive benefit of E-Cadherin or vimentin expression was assessed by comparing trends in the hazard ratios. No treatments by biomarker interaction tests were performed. Three Scoring Methods were used for E-Cadherin and Vimentin: • 1. % Any Staining of tumor cells • 2. % of tumor cell Staining of Intensity +2 or +3 • 3. Composite Score Example: A sample read as 5% unstained, 35% staining of intensity +1, 45% staining of intensity +2, and 15% staining of intensity +3, would be scored as follows: • 95% any staining • 60% staining of intensity +2 or +3 • 0(5)+1(35)+2(45)+3(15)=Composite Score of 170 Overall survival is defined as the time from the study treatment start date to the date of death. If the patient receives the study treatment but the patient is still alive or a death date is unavailable, overall survival is calculated as the difference between the study treatment start date and the last date the patient was known to be alive. […] Progression free survival (PFS) is defined as the time from the study treatment start date to the documentation date of disease progression or the death date. As with overall survival, if no progression/death date is available, the PFS is calculated as the time from the study treatment start date to the last documented tumor assessment date, and is noted to be “censored”.
# Table 6 illustrates the numbers of patients in each treatment arm who were E-Cadherin high vs. low, and vimentin high vs. low for the subset of patients for whom E-Cadherin and vimentin results were available (N=95). P-values are determined from univariate Kaplan-Meier analyses. […]
# [1] = overall survival, E-Cadherin High
# [2] = overall survival, E-Cadherin Low
# [3] = overall survival, E-Cadherin/Vimentin High/High
# [4] = overall survival, E-Cadherin/Vimentin High/Low
# [5] = overall survival, E-Cadherin/Vimentin Low/High
# [6] = overall survival, E-Cadherin/Vimentin Low/Low
# [7] = overall survival, Patients with Known E-Cadherin Results
# [8] = overall survival, Patients with Known Vimentin Results
# [9] = overall survival, Vimentin High
compound,measurement,setting,value
"C#Cc1cccc(Nc2ncnc3cc(OCCOC)c(OCCOC)cc23)c1 [Erlotinib, [6,7-bis(2-methoxyethoxy)-4-quinazolin-4-yl]-(3-ethynylphenyl)amine]","Kaplan-Meier overall survival, Erlotinib arm compared to Placebo arm",E-Cadherin high subset (FIG. 3),more favorable
same,"Kaplan-Meier progression free survival, Erlotinib arm compared to Placebo arm",E-Cadherin high subset (FIG. 4),more favorable
same,"Kaplan-Meier overall survival, Erlotinib arm compared to Placebo arm",E-Cadherin low subset (FIG. 3),switched in direction but smaller in magnitude
same,"Kaplan-Meier progression free survival, Erlotinib arm compared to Placebo arm",E-Cadherin low subset (FIG. 4),switched in direction but smaller in magnitude
same,"Kaplan-Meier overall survival, E-Cadherin high subset compared to E-Cadherin low subset",Erlotinib arm (FIG. 3),more favorable
same,"Kaplan-Meier progression free survival, E-Cadherin high subset compared to E-Cadherin low subset",Erlotinib arm (FIG. 4),more favorable
same,"Kaplan-Meier overall survival, vimentin high subset compared to vimentin low subset",Erlotinib arm (FIG. 5),more favorable; also recorded: longer
same,"Kaplan-Meier progression free survival, vimentin high subset compared to vimentin low subset",Erlotinib arm (FIG. 6),more favorable; also recorded: longer
same,Hazard Ratio (H/L) (95% CI),"PFS, E-Cadherin High vs. E-Cadherin Low (cut-point 40% staining of intensity +2 or +3)",0.571 and 0.57
same,Hazard Ratio (H/L) (95% CI),"PFS, Vimentin High vs. Vimentin Low",0.43
same,Hazard Ratio (95% CI),"PFS, All Patients",0.64
same,Hazard Ratio (95% CI),"PFS, E-Cadherin High",0.52
same,Hazard Ratio (95% CI),"PFS, E-Cadherin Low",1.18
same,Hazard Ratio (95% CI),"PFS, E-Cadherin/Vimentin High/High",0.235
same,Hazard Ratio (95% CI),"PFS, E-Cadherin/Vimentin High/Low",0.73
same,Hazard Ratio (95% CI),"PFS, E-Cadherin/Vimentin Low/High",0.24
same,Hazard Ratio (95% CI),"PFS, E-Cadherin/Vimentin Low/Low",2.75
same,Hazard Ratio (95% CI),"PFS, Patients with Known E-Cadherin Results",0.72
same,Hazard Ratio (95% CI),"PFS, Patients with Known Vimentin Results",0.72
same,Hazard Ratio (95% CI),"PFS, Vimentin High",0.28
same,Hazard Ratio (95% CI),"PFS, Vimentin Low",1.11
same,Median Survival,"overall survival, All Patients",6.67 Months
same,Median Survival,[1],11.3 Months
same,Hazard Ratio (H/L) (95% CI),"overall survival, E-Cadherin High vs. E-Cadherin Low (cut-point 40% staining of intensity +2 or +3)",0.682 and 0.68
same,Median Survival,[2],4.86 Months
same,Median Survival,[3],10.38 Months
same,Median Survival,[4],12.06 Months
same,Median Survival,[5],10.7 Months
same,Median Survival,[6],4.81 Months
same,Median Survival,[7],8.44 Months
same,Median Survival,[8],8.44 Months
same,Median Survival,[9],10.55 Months
same,Hazard Ratio (H/L) (95% CI),"overall survival, Vimentin High vs. Vimentin Low",0.65
same,Median Survival,"overall survival, Vimentin Low",6.11 Months
same,Hazard Ratio (95% CI),"overall survival, All Patients",0.76
same,Hazard Ratio (95% CI),[1],0.47
same,Hazard Ratio (95% CI),[2],1.12
same,Hazard Ratio (95% CI),[3],0.31
same,Hazard Ratio (95% CI),[4],0.57
same,Hazard Ratio (95% CI),[5],0.26
same,Hazard Ratio (95% CI),[6],2.44
same,Hazard Ratio (95% CI),[7],0.69
same,Hazard Ratio (95% CI),[8],0.69
same,Hazard Ratio (95% CI),[9],0.26
same,Hazard Ratio (95% CI),"overall survival, Vimentin Low",0.99
same,Median PFS,All Patients,2.23 Months
same,Median PFS,E-Cadherin High,3.68 Months
same,Median PFS,E-Cadherin Low,1.97 Months
same,Median PFS,E-Cadherin/Vimentin High/High,8.02 Months
same,Median PFS,E-Cadherin/Vimentin High/Low,2.66 Months
same,Median PFS,E-Cadherin/Vimentin Low/High,3.61 Months
same,Median PFS,E-Cadherin/Vimentin Low/Low,1.69 Months
same,Median PFS,Patients with Known E-Cadherin Results,2.38 Months
same,Median PFS,Patients with Known Vimentin Results,2.38 Months
same,Median PFS,Vimentin High,5.39 Months
same,Median PFS,Vimentin Low,2.18 Months
same,survival when treated with TARCEVA,subset of treated patients with high E-cadherin expression,longer survival
same,survival when treated with TARCEVA,subset of treated patients with high vimentin expression,significantly longer survival
same,"Kaplan-Meier overall survival, Erlotinib arm compared to Placebo arm",vimentin high subset (FIG. 5),more favorable
same,"Kaplan-Meier progression free survival, Erlotinib arm compared to Placebo arm",vimentin high subset (FIG. 6),more favorable
same,"Kaplan-Meier overall survival, Erlotinib arm compared to Placebo arm",vimentin low subset (FIG. 5),no difference
same,"Kaplan-Meier progression free survival, Erlotinib arm compared to Placebo arm",vimentin low subset (FIG. 6),no difference
